Data as given in patent publication US20240150377A1, “MODULATORS OF CYSTIC FIBROSIS TRANSMEMBRANE CONDUCTANCE REGULATOR” (VERTEX PHARMACEUTICALS INCORPORATED, priority 2020, published 2024).
Read-outs that look alike come from different tables or passages of the source. Blank lines part the entries; values can stand above or below the compound they belong to.

Biological target: T1, CFTR (Homo sapiens, UniProt P13569, DEL508-508)
T1 construct: endogenous in cells; host or cells: primary human bronchial epithelial cells from CF subjects (F508del/MF-HBE), differentiated at air-liquid interface
Test: HBE assay: Ussing chamber assay of CFTR-mediated short-circuit currents
Format: cell-based
Details: for EC50: read-out: HBE EC50
Method in brief: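 CFTR-mediated Isc (μA/cm²) equals the peak response to apical 20 μM forskolin minus the residual after a 20 μM each BPO/GlyH-101/CFTR inhibitor 172 cocktail, recorded in Ussing chambers at Vhold 0 mV, 37 °C, pH 7.4, with 30 μM apical amiloride. Cells were F508del/MF HBE cultures preincubated 18-24 h with corrector (concentration range or 10 μM) plus 1 μM ivacaftor in 20% human serum.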

[1] = Table 10, read-out: HBE Max activity (%)
[2] = Table 11, read-out: HBE Max Activity (%)
[3] = Table 13, read-out: HBE Max Activity (%)
[4] = read-out: HBE Activity at 10 μM (%)
[5] = HBE assay, read-out: HBE Max activity (%)
[6] = Table 12, read-out: HBE Max Activity (%)
[7] = Table 12, at 10 μM, read-out: HBE Activity at 10 μM (%)

T1 sequence (P13569 with tags, fused parts or gaps DEL508-508): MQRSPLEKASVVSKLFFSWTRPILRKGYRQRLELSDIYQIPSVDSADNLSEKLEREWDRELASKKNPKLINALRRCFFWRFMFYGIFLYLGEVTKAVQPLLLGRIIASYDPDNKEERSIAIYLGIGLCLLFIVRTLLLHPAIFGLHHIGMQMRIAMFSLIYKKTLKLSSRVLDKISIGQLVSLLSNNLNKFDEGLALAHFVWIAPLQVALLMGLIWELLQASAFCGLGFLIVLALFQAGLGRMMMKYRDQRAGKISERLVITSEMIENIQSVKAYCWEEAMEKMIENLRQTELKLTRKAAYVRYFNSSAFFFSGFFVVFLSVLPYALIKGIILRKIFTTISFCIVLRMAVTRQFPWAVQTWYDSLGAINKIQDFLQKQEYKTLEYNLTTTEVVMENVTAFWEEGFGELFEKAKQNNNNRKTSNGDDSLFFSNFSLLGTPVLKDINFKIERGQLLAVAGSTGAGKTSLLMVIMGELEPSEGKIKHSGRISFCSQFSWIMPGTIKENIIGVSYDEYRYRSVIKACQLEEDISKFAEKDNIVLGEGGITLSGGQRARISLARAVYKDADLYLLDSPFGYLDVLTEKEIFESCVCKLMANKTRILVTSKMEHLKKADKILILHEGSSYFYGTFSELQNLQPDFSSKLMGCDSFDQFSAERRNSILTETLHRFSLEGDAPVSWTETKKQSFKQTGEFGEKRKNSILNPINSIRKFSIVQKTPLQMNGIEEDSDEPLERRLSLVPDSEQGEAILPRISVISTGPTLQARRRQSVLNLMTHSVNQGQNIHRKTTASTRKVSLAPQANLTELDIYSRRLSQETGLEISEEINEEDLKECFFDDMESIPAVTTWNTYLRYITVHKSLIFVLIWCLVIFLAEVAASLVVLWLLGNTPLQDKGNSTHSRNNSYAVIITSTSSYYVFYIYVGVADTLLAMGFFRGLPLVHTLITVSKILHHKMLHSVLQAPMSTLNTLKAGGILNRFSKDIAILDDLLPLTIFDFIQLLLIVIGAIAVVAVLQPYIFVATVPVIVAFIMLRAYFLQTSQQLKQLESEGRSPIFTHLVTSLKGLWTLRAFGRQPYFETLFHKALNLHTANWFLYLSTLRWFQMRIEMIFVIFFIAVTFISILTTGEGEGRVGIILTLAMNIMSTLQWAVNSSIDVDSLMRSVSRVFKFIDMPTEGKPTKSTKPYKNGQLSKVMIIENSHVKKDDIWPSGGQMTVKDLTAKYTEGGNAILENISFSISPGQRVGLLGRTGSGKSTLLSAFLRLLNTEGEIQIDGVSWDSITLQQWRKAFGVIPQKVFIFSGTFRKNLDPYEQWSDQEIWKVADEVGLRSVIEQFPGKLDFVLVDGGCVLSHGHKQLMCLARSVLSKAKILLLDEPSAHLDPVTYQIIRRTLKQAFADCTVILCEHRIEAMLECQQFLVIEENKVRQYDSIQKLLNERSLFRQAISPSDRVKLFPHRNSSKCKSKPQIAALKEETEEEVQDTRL

- EC50 (Table 11): < 1 µM
Structure (SMILES): Cc1cccc(C)c1-c1cc2nc(n1)NS(=O)(=O)c1cccc(c1)C(=O)N(CC1CCCN(CCC(C)(C)C)C1=O)[C@H](CC(C)(C)C)CO2 (stereo partly drawn) [Compound 655]

- activation at 10 µM (Table 13, at 10 μM, read-out: HBE Activity at 10 μM (%)): > 600%
Structure (SMILES): Cc1cccc(C)c1-c1cc2nc(n1)NS(=O)(=O)c1cccc(c1)C(=O)N(CC(=O)N(C)CC1CCCCO1)[C@H](CC(C)(C)C)CO2 (stereo partly drawn) [Compound 225]

- EC50 (Table 10): < 1 µM
- Emax [1]: > 60%
Structure (SMILES): Cc1cccc(C)c1-c1cc2nc(n1)NS(=O)(=O)c1cccc(c1)C(=O)N(Cc1ccc(OCC(N)=O)cc1)[C@H](CC(C)(C)C)CO2 [Compound 780]

- activation at 10 µM (Table 11, at 10 μM, read-out: HBE Activity at 10 μM (%)): > 60%
- EC50 (Table 11): < 1 µM
- Emax [2]: > 60%
Structure (SMILES): Cc1cccc(C)c1-c1cc2nc(n1)NS(=O)(=O)c1cccc(c1)C(=O)N(Cc1ccc(OCC(C)(C)O)cn1)[C@H](CC(C)(C)C)CO2 [Compound 51, (11R)-6-(2,6-Dimethylphenyl)-11-(2,2-dimethylpropyl)-12-[[5-(2-hydroxy-2-methyl-propoxy)-2-pyridyl]methyl]-2,2-dioxo-9-oxa-2λ^6-thia-3,5,12,19-tetrazatricyclo[12.3.1.14,8]nonadeca-1(18),4(19),5,7,14,16-hexaen-13-one]

- EC50 (Table 13): < 1 µM
- Emax [3]: > 60%
Structure (SMILES): Cc1cccc(C)c1-c1cc2nc(n1)NS(=O)(=O)c1cccc(c1)C(=O)N(Cc1ncc(N3CCC(C)(C)C3)cc1C(F)(F)F)[C@H](CC(C)(C)C)CO2 [Compound 1118]

- EC50 (Table 13): < 1 µM
- Emax [3]: > 60%
Structure (SMILES): COc1cnc(CN2C(=O)c3cccc(c3)S(=O)(=O)Nc3nc(cc(-c4c(C)cccc4C)n3)OC[C@H]2CC(C)(C)C)c(Cl)c1 [Compound 1067]

- activation at 10 µM (HBE assay, 10 μM, read-out: HBE Activity at 10 μM (%)): > 60%
Structure (SMILES): Cc1cccc(C)c1-c1cc2nc(n1)NS(=O)(=O)c1cccc(c1)C(=O)N(Cc1ncc(N3CC(C)(C)C3)cn1)[C@H](CCC(C)(C)C)CO2 [Compound 1525]

- EC50 (Table 13): < 1 µM
- Emax [3]: > 60%
Structure (SMILES): COc1cnc(CN2C(=O)c3cccc(c3)S(=O)(=O)Nc3nc(cc(-c4c(C)cccc4C)n3)OC[C@H]2CC(C)(C)C)c(F)c1 [Compound 1112]

- EC50 (Table 10): < 1 µM
- Emax [1]: > 60%
Structure (SMILES): Cc1cccc(C)c1-c1cc2nc(n1)NS(=O)(=O)c1cccc(c1)C(=O)N(CC1CCC(O)(CO)CC1)[C@H](CC(C)(C)C)CO2 (stereo partly drawn) [Compound 908]

Structure (SMILES): COC[C@H]1CCCCN1c1cncc(CN2C(=O)c3cccc(c3)S(=O)(=O)Nc3nc(cc(-c4c(C)cccc4C)n3)OC[C@H]2CC(C)(C)C)n1 [Compound 1538]
- activation at 10 µM [4]: > 60%

- EC50 (Table 11): < 1 µM
- Emax [2]: > 60%
Structure (SMILES): Cc1cccc(C)c1-c1cc2nc(n1)NS(=O)(=O)c1cccc(c1)C(=O)N(CC1CCCOC1)[C@H](CC(C)(C)C)CO2 (stereo partly drawn) [Compound 818]

- EC50 (HBE assay): < 1 µM
- Emax [5]: > 60%
Structure (SMILES): Cc1cccc(C)c1-c1cc2nc(n1)NS(=O)(=O)c1cccc(c1)C(=O)N(Cc1cncc(N(C)C3CCOC3)n1)[C@H](CC(C)(C)C)CO2 (stereo partly drawn) [Compound 1349]

- EC50 (Table 11): < 1 µM
- Emax [2]: > 60%
Structure (SMILES): Cc1cccc(C)c1-c1cc2nc(n1)NS(=O)(=O)c1cccc(c1)C(=O)N(Cc1ncc(C#N)cn1)[C@H](CC(C)(C)C)CO2 [Compound 643]

- EC50 (Table 11): 1 to 3 µM
- Emax [2]: > 60%
Structure (SMILES): Cc1cccc(C)c1-c1cc2nc(n1)NS(=O)(=O)c1cccc(c1)C(=O)N(Cc1ncc(N(C)C(C)C)cn1)[C@H](CC(C)(C)C)CO2 [Compound 633]

Structure (SMILES): Cc1cccc(C)c1-c1cc2nc(n1)NS(=O)(=O)c1cccc(c1)C(=O)N(Cc1cncc(N3CCCC[C@H]3C3CC3)n1)[C@H](CC(C)(C)C)CO2 [Compound 1532]
- activation at 10 µM [4]: > 60%

- EC50 (Table 12): < 1 µM
- Emax [6]: > 60%
Structure (SMILES): Cc1cccc(C)c1-c1cc2nc(n1)NS(=O)(=O)c1cccc(c1)C(=O)N(Cc1ncc(N3CC[C@](C)(O)C3)cn1)[C@H](CC(C)(C)C)CO2 [Compound 541]

- Emax [1]: > 60%
Structure (SMILES): Cc1cccc(C)c1-c1cc2nc(n1)NS(=O)(=O)c1cccc(c1)C(=O)N([C@@H](C)c1ccc(-c3cn[nH]c3)cc1)[C@H](CC(C)(C)C)CO2 [Compound 287]

- EC50 (Table 13): < 1 µM
- Emax [3]: > 60%
Structure (SMILES): Cc1cccc(C)c1-c1cc2nc(n1)NS(=O)(=O)c1cccc(c1)C(=O)N(Cc1ncc(OC(C)C)cc1Cl)[C@H](CC(C)(C)C)CO2 [Compound 691]

- EC50 (Table 10): < 1 µM
- Emax [1]: > 60%
Structure (SMILES): Cc1cccc(C)c1-c1cc2nc(n1)NS(=O)(=O)c1cccc(c1)C(=O)N(Cc1ncccc1N1CCCCC1)[C@H](CC(C)(C)C)CO2 [Compound 377]

- EC50 (HBE assay): < 1 µM
- Emax [5]: > 60%
Structure (SMILES): COCCN(c1ccc(C)c(CN2C(=O)c3cccc(c3)S(=O)(=O)Nc3nc(cc(-c4c(C)cccc4C)n3)OC[C@H]2CC(C)(C)C)n1)C(C)C [Compound 1343]

- EC50 (Table 13): < 1 µM
- Emax [3]: > 60%
Structure (SMILES): Cc1cccc(C)c1-c1cc2nc(n1)NS(=O)(=O)c1cccc(c1)C(=O)N(Cc1ccc(N3CC4(CCCO4)C3)cn1)[C@H](CC(C)(C)C)CO2 [Compound 1058]

- EC50 (Table 13): < 1 µM
- Emax [3]: > 60%
Structure (SMILES): Cc1cccc(C)c1-c1cc2nc(n1)NS(=O)(=O)c1cccc(c1)C(=O)N(Cc1ncc(OC(C)C)cn1)[C@H](CC1(C(F)(F)F)CC1)CO2 [Compound 1120]

- EC50 (Table 11): < 1 µM
- Emax [2]: > 60%
Structure (SMILES): Cc1cccc(C)c1-c1cc2nc(n1)NS(=O)(=O)c1cccc(c1)C(=O)N(C[C@@H]1CN(CC(C)(C)C)CCO1)[C@H](CC(C)(C)C)CO2 [Compound 142, (11R)-6-(2,6-Dimethylphenyl)-11-(2,2-dimethylpropyl)-12-{[(2S)-4-(2,2-dimethylpropyl)morpholin-2-yl]methyl}-9-oxa-2λ^6-thia-3,5,12,19-tetraazatricyclo[12.3.1.14,8]nonadeca-1(17),4,6,8(19),14(18),15-hexaene-2,2,13-trione]

- EC50 (Table 12): < 1 µM
- Emax [6]: > 60%
Structure (SMILES): Cc1cccc(C)c1-c1cc2nc(n1)NS(=O)(=O)c1cccc(c1)C(=O)N(Cc1ncc(OC3CC4(CC4)C3)cn1)[C@H](CC(C)(C)C)CO2 [Compound 560]

- EC50 (HBE assay): < 1 µM
- Emax [5]: > 60%
Structure (SMILES): Cc1cccc(C)c1-c1cc2nc(n1)NS(=O)(=O)c1cccc(c1)C(=O)N(Cc1ncc(O[C@@H](C)C(C)C)cn1)[C@H](CC1CC1)CO2 [Compound 1455]

- EC50 (Table 11): < 1 µM
- Emax [2]: > 60%
Structure (SMILES): Cc1cccc(C)c1-c1cc2nc(n1)NS(=O)(=O)c1cccc(c1)C(=O)N(Cc1cccc(C(C)C)n1)[C@H](CC(C)(C)C)CO2 [Compound 729]

- EC50 (Table 12): < 1 µM
- Emax [6]: > 60%
Structure (SMILES): Cc1cccc(C)c1-c1cc2nc(n1)NS(=O)(=O)c1cccc(c1)C(=O)N(Cc1nccc(N(C)[C@@H]3CCC34CCC4)n1)[C@H](CC(C)(C)C)CO2 [Compound 451]

- EC50 (HBE assay): < 1 µM
- Emax [5]: > 60%
Structure (SMILES): COCCOc1cnc(CN2C(=O)c3cccc(c3)S(=O)(=O)Nc3nc(cc(-c4c(C)cccc4C)n3)OC[C@H]2CC(C)(C)C)c(F)c1 [Compound 1364]

- activation at 10 µM [7]: 30 to 60%
- EC50 (Table 12): < 1 µM
Structure (SMILES): Cc1cccc(C)c1-c1cc2nc(n1)NS(=O)(=O)c1cccc(c1)C(=O)N(CC1(C(=O)O)CC1)[C@H](CC(C)(C)C)CO2 [Compound 450]

- activation at 10 µM [7]: > 600%
Structure (SMILES): Cc1cccc(C)c1-c1cc2nc(n1)NS(=O)(=O)c1cccc(c1)C(=O)N(Cc1ccc(C3=CCCCC3)nn1)[C@H](CC(C)(C)C)CO2 [Compound 237]

- EC50 (Table 12): < 1 µM
- Emax [6]: > 60%
Structure (SMILES): Cc1cccc(C)c1-c1cc2nc(n1)NS(=O)(=O)c1cccc(c1)C(=O)N(Cc1nccc(N(C)C3CC4(CCC4)C3)n1)[C@H](CC(C)(C)C)CO2 [Compound 445]

- activation at 10 µM (Table 10, at 10 μM, read-out: HBE activity at 10 (μM) (%)): > 60%
Structure (SMILES): Cc1cccc(C)c1-c1cc2nc(n1)NS(=O)(=O)c1cccc(c1)C(=O)N(Cc1cccc(-c3c[nH]nc3C)c1)[C@H](CC(C)(C)C)CO2 [Compound 312]
